Values after ≈ are worked out from the molar mass of the structure shown. Like-named read-outs stand apart in the source and are kept apart here.
Tests used:
[1] = test system: Trichophyton interdigitale CCM 8377, ATCC 9533; assay: Antifungal microdilution broth MIC, TI; details: Trichophyton interdigitale
[2] = test system: Klebsiella pneumoniae CCM 4415, ATCC 10031; assay: Antibacterial microdilution broth MIC, KP
[3] = test system: Acinetobacter baumannii DSM 30007, ATCC 19606; assay: Antibacterial microdilution broth MIC, ACI; assay type: cell-based
[4] = test system: Lichtheimia corymbifera CCM 8077; assay: Antifungal microdilution broth MIC, LC
HepG2 cell line = assay: Cytotoxicity CellTiter 96, HepG2; assay type: cell-based, human; details: Homo sapiens, HepG2, 24 h, 24 h incubation; ^c compound precipitated in the testing medium; ^d over the limit of tested concentrations
[5] = test system: Mycobacterium tuberculosis H37Rv; assay: Microplate Alamar Blue Assay MIC, Mtb H37Rv; assay type: cell-based; details: Mycobacterium tuberculosis, H37RV
[6] = test system: Pseudomonas aeruginosa CCM 3955, ATCC 27853; assay: Antibacterial microdilution broth MIC, PA; assay type: cell-based
[7] = test system: Aspergillus fumigatus ATCC 204305; assay: Antifungal microdilution broth MIC, AF
[8] = test system: Candida parapsilosis CCM 8260, ATCC 22019; assay: Antifungal microdilution broth MIC, CP; details: Lodderomyces parapsilosis
[9] = test system: M. kansasii CNCTC My 235/80; assay: Microplate Alamar Blue Assay MIC, M. kansasii; assay type: cell-based; details: Mycobacterium kansasii
[10] = test system: Candida albicans CCM 8320, ATCC 24433; assay: Antifungal microdilution broth MIC, CA
[11] = test system: Mycolicibacterium smegmatis DSM 43465; assay: Antimycobacterial microdilution broth MIC (resazurin), M. smegmatis; assay type: cell-based; details: DSM43465, read-out: MIC M. smegmatis
[12] = test system: Staphylococcus aureus subsp. aureus CCM 4750, ATCC 43300 (MRSA); assay: Antibacterial microdilution broth MIC, MRSA; assay type: cell-based; details: Staphylococcus aureus
[13] = test system: Aspergillus flavus CCM 8363; assay: Antifungal microdilution broth MIC, AFla
panel of fungi = assay: Antifungal screening, whole panel; assay type: cell-based; details: whole fungal panel
Procedure: The antifungal activity was evaluated by
spectrophotometric visual detection** spectrophotometric detection**
Candida tropicalis 1 1 2 >16
Aspergillus fumigatus 4 4 0.25 1
Aspergillus flavus CCM 4 4 2 >16
interdigitale CCM 1 1 1 >16
control. […] Measured on a […]

[14] = test system: M. avium ssp. avium CNCTC My 80/72; assay: Microplate Alamar Blue Assay MIC, M. avium; assay type: cell-based; details: for MIC: Mycobacterium avium
[15] = test system: Mycolicibacterium aurum DSM 43999; assay: Antimycobacterial microdilution broth MIC (resazurin), M. aurum; assay type: cell-based; details: DSM43999, read-out: MIC M. aurum
[16] = test system: Staphylococcus epidermidis CCM 4418, ATCC 12228; assay: Antibacterial microdilution broth MIC, SE; assay type: cell-based
[17] = test system: Enterococcus faecalis CCM 4224, ATCC 29212; assay: Antibacterial microdilution broth MIC, EF; assay type: cell-based
[18] = test system: Staphylococcus aureus CCM 4223, ATCC 29213; assay: Antibacterial microdilution broth MIC, SA; assay type: cell-based; details: Staphylococcus aureus
[19] = test system: Candida krusei CCM 8271, ATCC 6258; assay: Antifungal microdilution broth MIC, CK; details: Pichia kudriavzevii
[20] = test system: Candida tropicalis CCM 8264, ATCC 750; assay: Antifungal microdilution broth MIC, CT
panel of bacteria = assay: Antibacterial screening, whole panel; assay type: cell-based; details: whole bacterial panel
[21] = test system: Escherichia coli CCM 3954, ATCC 25922; assay: Antibacterial microdilution broth MIC, EC; assay type: cell-based
[22] = test system: Mycobacterium tuberculosis H37Ra; assay: Antimycobacterial microdilution broth MIC (resazurin), Mtb H37Ra; assay type: cell-based; details: for MIC: Mycobacterium tuberculosis, H37RA, read-out: MIC Mtb H37Ra; for SI (selectivity index): SI = HepG2 IC50 (μM)/MIC MtbH37Ra (μM), calculated for compounds with MIC ≤ 31.25 μg/mL
[23] = CCM8077, 24 h, read-out: MIC LC 24h
[24] = CCM8077, 48 h, read-out: MIC LC 48h
[25] = ATCC204305, 24 h, read-out: MIC AF 24h
[26] = ATCC204305, 48 h, read-out: MIC AF 48h
[27] = CCM8363, 24 h, read-out: MIC AFla 24h
[28] = CCM8363, 48 h, read-out: MIC AFla 48h

## O=C(Cc1ccc(Cl)cc1)Nc1ccc(Cl)cn1 [Compound 20]
[1]; 72 h, read-out: MIC TI 72h
  MIC: > 500 µM
[1]; 120 h, read-out: MIC TI 120h
  MIC: > 500 µM
[2]
  MIC KP 24h: > 500 µM
  MIC KP 48h: > 500 µM
[3]; 24 h, read-out: MIC ACI 24h
  MIC: > 500 µM
[3]; 48 h, read-out: MIC ACI 48h
  MIC: > 500 µM
[4]; [23]
  MIC: > 500 µM
[4]; [24]
  MIC: > 500 µM
HepG2 cell line
  IC50: 48.5 µM
[5]
  MIC: 6.25 µg/mL (≈ 22.2 µM)
[6]; 24 h, read-out: MIC PA 24h
  MIC: > 500 µM
[6]; 48 h, read-out: MIC PA 48h
  MIC: > 500 µM
[7]; [25]
  MIC: > 500 µM
[7]; [26]
  MIC: > 500 µM
[8]; 24 h, read-out: MIC CP 24h
  MIC: > 500 µM
[8]; 48 h, read-out: MIC CP 48h
  MIC: > 500 µM
[9]
  MIC: > 100 µg/mL
[10]; 24 h, read-out: MIC CA 24h
  MIC: > 500 µM
[10]; 48 h, read-out: MIC CA 48h
  MIC: > 500 µM
[11]
  MIC: 500 µg/mL (≈ 1780 µM)
[12]; 24 h, read-out: MIC MRSA 24h
  MIC: > 500 µM
[12]; 48 h, read-out: MIC MRSA 48h
  MIC: > 500 µM
[13]; [27]
  MIC: > 500 µM
[13]; [28]
  MIC: > 500 µM
Panel of fungi
  Antifungal activity: None
[14]
  MIC: > 100 µg/mL
[15]
  MIC: 500 µg/mL (≈ 1780 µM)
[16]; 24 h, read-out: MIC SE 24h
  MIC: > 500 µM
[16]; 48 h, read-out: MIC SE 48h
  MIC: > 500 µM
[17]; 24 h, read-out: MIC EF 24h
  MIC: > 500 µM
[17]; 48 h, read-out: MIC EF 48h
  MIC: > 500 µM
[18]; 24 h, read-out: MIC SA 24h
  MIC: > 500 µM
[18]; 48 h, read-out: MIC SA 48h
  MIC: > 500 µM
[19]; 24 h, read-out: MIC CK 24h
  MIC: > 500 µM
[19]; 48 h, read-out: MIC CK 48h
  MIC: > 500 µM
[20]; 24 h, read-out: MIC CT 24h
  MIC: > 500 µM
[20]; 48 h, read-out: MIC CT 48h
  MIC: > 500 µM
Panel of bacteria
  Antibacterial activity: None
[21]; 24 h, read-out: MIC EC 24h
  MIC: > 500 µM
[21]; 48 h, read-out: MIC EC 48h
  MIC: > 500 µM
[22]; Calculated from MIC (μg/mL)
  MIC: 27.8 µM
[22]
  MIC: 7.81 µg/mL
  SI (selectivity index): 1.7

## O=C(Cc1ccc(C(F)(F)F)cc1)Nc1cccc(Cl)n1 [Compound 30]
[1]; 72 h, read-out: MIC TI 72h
  MIC: 500 µM (≈ 157 µg/mL)
[1]; 120 h, read-out: MIC TI 120h
  MIC: 500 µM (≈ 157 µg/mL)
[2]
  MIC KP 24h: > 500 µM
  MIC KP 48h: > 500 µM
[3]; 24 h, read-out: MIC ACI 24h
  MIC: > 500 µM
[3]; 48 h, read-out: MIC ACI 48h
  MIC: > 500 µM
[4]; [23]
  MIC: > 500 µM
[4]; [24]
  MIC: > 500 µM
HepG2 cell line
  IC50: 92.6 µM
[5]
  MIC: 6.25 µg/mL (≈ 19.9 µM)
[6]; 24 h, read-out: MIC PA 24h
  MIC: > 500 µM
[6]; 48 h, read-out: MIC PA 48h
  MIC: > 500 µM
[7]; [25]
  MIC: > 500 µM
[7]; [26]
  MIC: > 500 µM
[8]; 24 h, read-out: MIC CP 24h
  MIC: > 500 µM
[8]; 48 h, read-out: MIC CP 48h
  MIC: > 500 µM
[9]
  MIC: > 100 µg/mL
[10]; 24 h, read-out: MIC CA 24h
  MIC: > 500 µM
[10]; 48 h, read-out: MIC CA 48h
  MIC: > 500 µM
[11]
  MIC: > 500 µg/mL
[12]; 24 h, read-out: MIC MRSA 24h
  MIC: > 500 µM
[12]; 48 h, read-out: MIC MRSA 48h
  MIC: > 500 µM
[13]; [27]
  MIC: > 500 µM
[13]; [28]
  MIC: > 500 µM
Panel of fungi
  Antifungal activity: None
[14]
  MIC M. avium: active
  MIC: 6.25 µg/mL (≈ 19.9 µM)
[15]
  MIC: > 500 µg/mL
[16]; 24 h, read-out: MIC SE 24h
  MIC: > 500 µM
[16]; 48 h, read-out: MIC SE 48h
  MIC: > 500 µM
[17]; 24 h, read-out: MIC EF 24h
  MIC: > 500 µM
[17]; 48 h, read-out: MIC EF 48h
  MIC: > 500 µM
[18]; 24 h, read-out: MIC SA 24h
  MIC: > 500 µM
[18]; 48 h, read-out: MIC SA 48h
  MIC: > 500 µM
[19]; 24 h, read-out: MIC CK 24h
  MIC: > 500 µM
[19]; 48 h, read-out: MIC CK 48h
  MIC: > 500 µM
[20]; 24 h, read-out: MIC CT 24h
  MIC: > 500 µM
[20]; 48 h, read-out: MIC CT 48h
  MIC: > 500 µM
Panel of bacteria
  Antibacterial activity: None
[21]; 24 h, read-out: MIC EC 24h
  MIC: > 500 µM
[21]; 48 h, read-out: MIC EC 48h
  MIC: > 500 µM
[22]; Calculated from MIC (μg/mL)
  MIC: 24.8 µM
[22]
  MIC: 7.81 µg/mL
  SI (selectivity index): 3.7

From PMC11748363, “Antimicrobial and Antiproliferative Properties of 2‐Phenyl‐N‐(Pyridin‐2‐yl)acetamides” (Chemical Biology & Drug Design, 2025)
